Measured values reported in patent US7563946B2, “Plant development regulating gene and its uses” (CropDesign, N.V., priority 2000, dated 2009).

How the values were obtained:
DR5::GUS [1] = assay: Auxin sensitivity test, DR5::GUS expression in wildtype seedlings; type: in vivo, Arabidopsis thaliana; conditions: 3 days on medium
Source text: (§1) However, new methods to detect auxin responses have emerged, for example with synthetic auxin responsive promoter elements binding ARF transcription factors, such as DR5::GUS (Ulmasov et al., 1997). Since there is also a resemblance of the hbt early embryo phenotype to axr6, bdl and mp mutants (Hardtke and Berleth, 1998; Hamann et al., 1999; Hobbie et al 2000), we used the DR5::GUS construct to re-investigated auxin responses in hbt seedlings. In wildtype seedling roots there is a maximum of DR5::GUS staining in the upper part of the columella (FIG. 17A). This peak is absent in hbt seedlings (FIG. 17F) where no GUS staining is visible. Since the specification of the columella cells is defective in hbt seedlings, we wanted to know whether hbt mutant cells are capable of sensing auxin. Therefore, hbt seedlings were incubated for 3 days on media containing different concentrations of the synthetic auxin 2,4 D, and DR5::GUS expression was analysed. […] It is therefore possible that the HBT gene has a role in the perception of auxin levels.
(§2) DR5::GUS expression in wt roots (A-E) and in hbt seedlings […]. Three days post germination seedlings were transferred to 0.5 GM plates (A and F) and 0.5 GM plates containing 10^−9 M 2,4 D (B and G), 10^−8 M 2,4 D (C and H), 10^−7 M 2,4 D (D and I) and 10^−6 M 2,4 D (E and J) and incubated for another three days. Mutants are shown at 10× magnification of the wildtype seedling.
(§3) DR5::GUS constructs was used (Ulmasov et al., 1997b). Seedlings were germinated on 0.5 GM medium as described, 3 dpg transferred to fresh 0.5 GM plates containing different concentrations of 2,4 D or IAA (5.10^−9 M until 5.10^−6 M) (see FIG. 17) and incubated for an additional 3 days. After that the b-glucuronidase was visualized as described (Willemsen et al., 1998).

DR5::GUS [2] = assay: Auxin sensitivity test, DR5::GUS expression in hbt mutant seedlings; type: in vivo, Arabidopsis thaliana
Source text: as §1, §2, §3

hbt seedlings = hbt seedlings treated with ethylene

SMILES | DR5::GUS expression in wildtype hypocotyls (DR5::GUS [1]; 5.10^-6 M) | DR5::GUS expression in wildtype root (DR5::GUS [1]; 5.10^-7 M) | DR5::GUS expression in wildtype roots (DR5::GUS [1]; 5.10^-9 M until 5.10^-8 M) | DR5::GUS expression in hbt hypocotyls (DR5::GUS [2]; 5.10^-6 M, 3 days on medium) | DR5::GUS expression in hbt root pole (DR5::GUS [2]; 5.10^-7 M, 3 days on medium) | DR5::GUS staining in hbt seedlings (DR5::GUS [2]; 5.10^-9 M until 5.10^-8 M, 3 days on medium) | DR5::GUS expression in hbt embryos compared to wildtype (DR5::GUS [2]; embryos, after induction) | Auxin sensitivity of hbt seedlings (synthetic auxin response element) (DR5::GUS [2]; hbt seedlings versus wildtype) | Re-specification of epidermal cells on the hypocotyl (hbt seedlings)
O=C(O)COc1ccc(Cl)cc1Cl [2,4 D] | never observed any ectopic DR5 expression | quite intense and throughout the entire root | ectopic expression of the DR5::GUS promoter in the meristem of wildtype roots | strong DR5 expression | a DR5 peak in the root pole of hbt | no staining observed | no differences compared to wildtype | altered auxin sensitivity | –
C=C [ethylene] | – | – | – | – | – | – | – | – | a large number of ectopic outgrowths was induced
